Values of other authors in paper PMC13515262 (Molecules, 2026).
pKi: −log10 of the molar value.

Target: T1, AChE (Electrophorus electricus, UniProt O42275)
T1 construct: The reaction was carried out using AChE serum obtained from the electric eel; from tissue; host or cells: 'serum' of the electric eel (so in the source)
Conditions: ref 39 (CAPE), 35 (Spiraeoside), 43 (olivetol), 36 (Vescalagin), 34 (Magnofluorine), 40 (taxifolin), 33 (coumestrol); read-out: Ki AChE (literature)

T1 sequence (O42275 24-633): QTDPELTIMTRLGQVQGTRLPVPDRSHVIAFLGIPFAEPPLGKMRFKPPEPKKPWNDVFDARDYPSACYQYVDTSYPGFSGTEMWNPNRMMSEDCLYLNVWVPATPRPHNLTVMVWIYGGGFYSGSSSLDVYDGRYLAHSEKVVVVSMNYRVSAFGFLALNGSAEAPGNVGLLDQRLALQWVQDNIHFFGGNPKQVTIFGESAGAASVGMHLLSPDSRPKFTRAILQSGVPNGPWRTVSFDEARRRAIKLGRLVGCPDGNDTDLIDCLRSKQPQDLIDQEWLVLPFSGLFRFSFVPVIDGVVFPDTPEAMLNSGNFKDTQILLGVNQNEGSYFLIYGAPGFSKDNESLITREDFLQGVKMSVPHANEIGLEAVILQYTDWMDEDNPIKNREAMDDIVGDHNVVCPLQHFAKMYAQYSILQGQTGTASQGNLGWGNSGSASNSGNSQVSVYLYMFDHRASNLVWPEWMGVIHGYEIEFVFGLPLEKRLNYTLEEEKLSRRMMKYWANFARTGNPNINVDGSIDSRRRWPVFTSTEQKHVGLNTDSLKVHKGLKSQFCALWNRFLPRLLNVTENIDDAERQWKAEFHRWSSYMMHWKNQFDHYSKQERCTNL

SMILES	pKi
O=C(/C=C/c1ccc(O)c(O)c1)OCCc1ccccc1 [CAPE, caffeic acid phenethyl ester]	9.29
O=c1c(O)c(-c2ccc(O[C@@H]3O[C@H](CO)[C@@H](O)[C@H](O)[C@H]3O)c(O)c2)oc2cc(O)cc(O)c12 [Spiraeoside]	8.47
